Among the data in patent US5180724A, “Carboxamide amino acid heterobicyclic PAF antagonists” (British Bio-Technology Limited, priority 1991, dated 1993) are ED50 and IC50 values, retold here.

Structures are written as SMILES. pIC50: −log10 of the molar value.

Assay [1] has as its system PAF-induced hypotension in the rat. As to the kind of experiment: Reversal of PAF-induced hypotension in anaesthetised rats. Conditions: iv, i.v. bolus during PAF infusion 100 ng/kg/min i.v., mean blood pressure fall of 50 mmHg, read-out: ED50 (dose to cause a 50% reversal of the hypotensive PAF response). Type of assay: in vivo, rat (male Sprague-Dawley). On the procedure:
(§1) Compounds of general formula I inhibit PAF-induced functions in both the cellular and tissue levels by changing the PAF binding to its specific receptor site. The ability of compounds of general formula I to inhibit the binding of PAF to its specific receptor binding site on human platelet plasma membranes was measured according to Pharmacological Example 1. The ability of compounds of general formula I to reverse the hypotension caused by an infusion of PAF in rats was measured according to Pharmacology Example 2.
Male Sprague-Dawley rats (300-350 gms) were anaesthetised with a mixture of sodium pentobarbitone, 22.5 mg.kg^-1 and thiopental 62.5 mg.kg^-1. Through a midline incision in the neck, the trachea was cannulated and the animals breathed spontaneously. A carotid artery was cannulated for the measurement of blood pressure and this signal was used to trigger a rate meter to measure heart rate. Both jugular veins were cannulated: one for the infusion of PAF and the other for the bolus administration of test compounds.
PAF, 100 ng.kg^-1. min^-1 was infused i.v. until a sustained fall in mean blood pressure of 50 mmHg was achieved. […] The peak of this reversal was measured and the dose to cause a 50% reversal of the hypotensive PAF response (ED50) calculated by straight line interpolation and the results are presented in Table 2. Also presented in Table 2 is the result for a comparative example (N-cyclohexyl-N-methyl 4-(lH-imidazo[4,5-c]pyridin-1-ylmethyl)benzamide. This compound (a PAF antagonist described in EP-A-02606130) is not within the scope of the invention.

For assay [2], the target named is T1, PAF receptor (specific receptor binding site on human platelet plasma membranes) (Homo sapiens, UniProt P25105).
T1 construct: from tissue; host or cells: human platelets (platelet concentrates from a hospital blood bank), lysed plasma membranes
In words: Inhibition of 3H-PAF binding to human platelet plasma membrane (receptor binding, filtration). Conditions: 0.5 nM 3H-PAF, 0° C., 1 hour incubation. On the procedure: as §1
The inhibition of ^3 H-PAF binding to human platelet plasma membrane by compounds of general formula I was determined by isotopic labelling and filtration techniques. Platelet concentrates were obtained from a hospital blood bank. These platelet concentrates (500-2500 ml.) were centrifuged at 800 rpm for 10 minutes in a SORVALL RC3B centrifuge to remove the red blood cells present. (The word SORVALL is a trade mark.) The supernatant was subsequently centrifuged at 3,000 rpm in a SORVALL RC3B centrifuge to pellet the platelets present. […]
The assay was conducted by preparing a series of Tris-buffered solutions of the selected antagonist of predetermined concentrations. […] Each washed residue was dried under vacuum on a sampling manifold and placed into vials containing 20 ml of OPTIPHASE MP scintillation fluid and the radioactivity counted in a liquid scintillation counter. […]

T1 sequence (P25105 whole entry): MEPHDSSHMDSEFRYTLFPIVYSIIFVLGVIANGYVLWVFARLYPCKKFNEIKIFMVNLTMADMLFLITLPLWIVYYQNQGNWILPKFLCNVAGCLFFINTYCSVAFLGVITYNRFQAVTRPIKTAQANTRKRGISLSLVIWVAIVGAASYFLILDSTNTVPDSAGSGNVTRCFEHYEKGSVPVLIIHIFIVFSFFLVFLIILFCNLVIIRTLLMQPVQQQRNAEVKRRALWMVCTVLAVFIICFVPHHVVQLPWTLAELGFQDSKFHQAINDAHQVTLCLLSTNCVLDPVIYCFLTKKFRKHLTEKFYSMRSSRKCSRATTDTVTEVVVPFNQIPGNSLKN

Turning to `CN(C(=O)c1ccc(Cn2cnc3cnccc32)cc1)C1CCCCC1` [Comparative Example, N-cyclohexyl-N-methyl 4-(lH-imidazo[4,5-c]pyridin-1-ylmethyl)benzamide, reference compound], in assay [1], the ED50 amounted to 150 µg/kg. Moreover, in assay [2], the negative logarithm of the IC50 (pIC50) was 5.00.

Regarding `CCOC[C@H](CC(C)C)N(C)C(=O)c1ccc(Cn2c(C)nc3cnccc32)cc1` [3 (B), N-Methyl-N-L-leucinol ethyl ether 4-(lH-2-methylimidazo[4,5-c]pyridylmethyl)benzamide], the 50% effective dose (ED50) in assay [1] was 6 µg/kg.

As for `CCOC(=O)[C@H](CC(C)C)N(C)C(=O)c1ccc(Cn2c(C)nc3cnccc32)cc1` [2 (B), N-Methyl-N-L-leucinyl ethyl ester 4-(1H-2-methylimidazo[4,5-c]pyridylmethyl)benzamide], the 50% effective dose (ED50) in assay [1] worked out at 5 µg/kg. This compound showed a negative-log IC50 (pIC50) in assay [2] of 8.00.
